Experimental data from paper PMC11325214 (2024).

Tested on: L-Procaine aptamer (DNA, aptamer) GGCGACAAGGAAAATCCTTCAACGAAGGTGGGTGGCC
Experiment: E-AB square wave voltammetry, 3D-printed gold electrode cell
Conditions: undiluted human serum; in serum; immobilised aptamer; apparent; Hill fit

`CCN(CC)CCOC(=O)c1ccc(N)cc1` showed an EC50 of 59.2 mM.
